Source: patent US20260027239A1, “cRGD -CONJUGATED IMAGING AGENT” (Curadel Surgical Innovations, Inc., priority 2022, published 2026)

Assays:
[1] = Stability in warm buffered fetal bovine serum (normalized absorbance and absorbance spectra over time); format: in vitro ADME; conditions: 37° C. buffered FBS
Experimental: The normalized absorbance of ZW800-1 and ZW700-1c in 37° C. buffered FBS, pH 7.4 over time from 0 to 60 hours are shown in FIGS. 2-4.

[2] = Stability of cRGD in serum; format: in vitro ADME

CC1(C)C(/C=C/C(=C/C=C2/N(CCC[N+](C)(C)C)c3ccc(S(=O)(=O)[O-])cc3C2(C)C)c2ccc(CCC(=O)[O-])cc2)=[N+](CCC[N+](C)(C)C)c2ccc(S(=O)(=O)[O-])cc21 [ZW700-1c]
stability, changes in absorption spectra during metabolism in warm serum ([1]; pH 7.4, 0 to 48 hours, compared to ZW800-1 (FIGS. 5-6)): high stability | stability, normalized absorbance over time ([1]; pH 7.4, 0 to 60 hours, compared to ZW800-1 (FIGS. 2-4)): extreme stability

N=C(N)NCC[C@@H]1NC(=O)[C@H](CCCCN)NC(=O)[C@@H](Cc2ccc(O)cc2)NC(=O)[C@H](C(=O)O)NC(=O)CNC1=O [cRGD]
stability in serum [2]: stable in serum for days
